The source made the active and inactive calls. The rule behind the calls is not given here.
Experiments:
Format in all cases: cell-based
[1] = target: T1, Solute carrier organic anion transporter family member 1B1 (Homo sapiens, UniProt Q9Y6L6); experiment: Inhibition of OATP1B1 (unknown origin) transfected in human A-431 cells assessed as inhibition of DHPDS uptake preincubated for 5 mins followed by DHPDS addition and measured after 10 mins by fluorescence based analysis
T1 sequence (Q9Y6L6 whole entry): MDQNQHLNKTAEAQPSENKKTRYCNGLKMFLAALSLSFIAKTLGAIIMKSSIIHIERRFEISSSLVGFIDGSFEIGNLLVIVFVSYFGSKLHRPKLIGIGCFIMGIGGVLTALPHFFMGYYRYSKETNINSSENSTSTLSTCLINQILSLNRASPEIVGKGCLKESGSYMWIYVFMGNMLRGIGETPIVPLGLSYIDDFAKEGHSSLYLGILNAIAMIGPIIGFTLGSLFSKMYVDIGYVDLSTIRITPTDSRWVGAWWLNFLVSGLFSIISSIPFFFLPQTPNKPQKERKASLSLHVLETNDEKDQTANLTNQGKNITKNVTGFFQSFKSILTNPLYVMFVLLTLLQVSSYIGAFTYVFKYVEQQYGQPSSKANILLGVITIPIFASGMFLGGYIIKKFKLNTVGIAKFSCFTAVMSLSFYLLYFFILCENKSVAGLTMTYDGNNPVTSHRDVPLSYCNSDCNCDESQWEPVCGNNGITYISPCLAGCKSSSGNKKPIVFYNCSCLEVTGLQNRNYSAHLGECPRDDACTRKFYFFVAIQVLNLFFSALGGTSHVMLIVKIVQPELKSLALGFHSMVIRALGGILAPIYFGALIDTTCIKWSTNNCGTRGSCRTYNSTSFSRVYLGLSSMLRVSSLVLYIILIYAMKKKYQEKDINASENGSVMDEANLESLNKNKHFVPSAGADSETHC

[2] = target: T2, Solute carrier family 22 member 1 (Homo sapiens, UniProt O15245); experiment: Inhibition of OCT1 (unknown origin) expressed in HEK293 cells assessed as inhibition of ASP+ uptake incubated for 5 mins by fluorescence based analysis; conditions: hek293, 5 min
T2 sequence (O15245 whole entry): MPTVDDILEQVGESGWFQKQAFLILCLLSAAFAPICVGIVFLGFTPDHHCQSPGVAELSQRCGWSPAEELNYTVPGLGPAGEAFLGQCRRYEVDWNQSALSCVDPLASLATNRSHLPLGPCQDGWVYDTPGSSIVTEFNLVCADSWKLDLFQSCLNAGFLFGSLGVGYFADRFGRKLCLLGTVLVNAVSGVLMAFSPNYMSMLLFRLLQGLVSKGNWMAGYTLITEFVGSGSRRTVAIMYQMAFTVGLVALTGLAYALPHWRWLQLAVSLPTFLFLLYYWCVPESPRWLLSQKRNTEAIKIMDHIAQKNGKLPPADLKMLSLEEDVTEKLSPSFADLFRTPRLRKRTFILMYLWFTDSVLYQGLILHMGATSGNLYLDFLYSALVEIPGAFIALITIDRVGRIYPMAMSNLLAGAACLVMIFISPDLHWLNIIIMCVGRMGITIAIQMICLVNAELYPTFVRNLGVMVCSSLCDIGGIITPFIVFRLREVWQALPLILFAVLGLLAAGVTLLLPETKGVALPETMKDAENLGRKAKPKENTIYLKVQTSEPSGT

[3] = target: Sodium-dependent dopamine transporter (Homo sapiens) (UniProt Q01959); experiment: Inhibition of DAT (unknown origin) expressed in HEK293 cells assessed as inhibition of MPP+ transport incubated for 5 mins by tandem mass spectrometry
Sequence of Sodium-dependent dopamine transporter (Homo sapiens) (Q01959 whole entry): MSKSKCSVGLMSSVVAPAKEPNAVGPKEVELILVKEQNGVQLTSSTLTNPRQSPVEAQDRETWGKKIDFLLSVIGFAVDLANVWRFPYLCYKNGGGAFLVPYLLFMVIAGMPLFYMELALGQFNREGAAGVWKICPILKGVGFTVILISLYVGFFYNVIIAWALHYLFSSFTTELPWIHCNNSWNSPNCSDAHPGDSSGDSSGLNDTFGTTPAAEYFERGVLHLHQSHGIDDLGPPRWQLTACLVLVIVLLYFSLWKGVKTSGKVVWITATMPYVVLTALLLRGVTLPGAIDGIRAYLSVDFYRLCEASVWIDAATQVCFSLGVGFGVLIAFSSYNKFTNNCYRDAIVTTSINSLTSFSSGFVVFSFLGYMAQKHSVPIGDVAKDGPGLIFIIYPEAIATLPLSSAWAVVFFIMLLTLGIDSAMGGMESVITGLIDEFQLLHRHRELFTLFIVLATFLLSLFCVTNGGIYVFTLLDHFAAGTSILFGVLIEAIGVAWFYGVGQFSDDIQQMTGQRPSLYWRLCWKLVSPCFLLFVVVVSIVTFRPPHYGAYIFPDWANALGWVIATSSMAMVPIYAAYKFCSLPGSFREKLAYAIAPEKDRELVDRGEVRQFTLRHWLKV

[4] = target: T3, Solute carrier family 22 member 3 (Homo sapiens, UniProt O75751); experiment: Inhibition of OCT3 (unknown origin) expressed in HEK293 cells assessed as inhibition of ASP+ uptake incubated for 5 mins by fluorescence based analysis
T3 sequence (O75751 whole entry): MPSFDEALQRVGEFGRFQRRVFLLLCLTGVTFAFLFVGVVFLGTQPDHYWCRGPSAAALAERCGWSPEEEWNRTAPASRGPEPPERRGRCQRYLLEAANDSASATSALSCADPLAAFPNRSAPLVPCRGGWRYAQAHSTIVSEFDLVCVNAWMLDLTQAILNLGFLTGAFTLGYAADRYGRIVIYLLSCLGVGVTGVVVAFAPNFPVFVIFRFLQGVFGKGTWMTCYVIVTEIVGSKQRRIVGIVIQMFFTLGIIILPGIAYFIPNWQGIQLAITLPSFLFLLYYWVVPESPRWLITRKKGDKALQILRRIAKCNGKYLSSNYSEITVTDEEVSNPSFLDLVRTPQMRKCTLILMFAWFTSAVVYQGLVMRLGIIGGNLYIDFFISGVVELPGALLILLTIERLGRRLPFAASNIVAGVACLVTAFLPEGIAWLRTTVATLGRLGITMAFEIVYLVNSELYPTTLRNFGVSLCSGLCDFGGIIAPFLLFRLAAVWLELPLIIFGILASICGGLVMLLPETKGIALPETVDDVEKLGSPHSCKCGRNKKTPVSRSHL

Compound	IC50 [1] [µM]	inhibition (INH) [2]	inhibition [3]	IC50 ([4]; hek293)	IC50 ([4]; read-out: IC50) [µM]
O=C(Cn1nc(C(=O)Nc2ccccn2)c2ccccc21)Nc1cc(Cl)ccc1Cl	16.8	Not_active	inactive	Not_active	
COc1cccc(NC(=O)c2nn(CC(=O)Nc3ccccc3OC)c3ccccc23)c1	5.66	Not_active	inactive		76.4
O=C(Cn1nc(C(=O)Nc2cccnc2)c2ccccc21)Nc1ccc(Cl)cc1	17.9	Not_active	inactive		111
COc1cccc(NC(=O)Cn2nc(C(=O)Nc3cccc(OC)c3)c3ccccc32)c1	4.96	Not_active	inactive	Not_active	
